Measured values reported in the NIST ThermoML archive (doi:10.1016/j.jct.2006.12.013).
Numbers after ± are expanded uncertainties.

Conditions: Liquid

vapor or sublimation pressure (313.15 K) | vapor or sublimation pressure (323.15 K) | vapor or sublimation pressure (333.15 K) | vapor or sublimation pressure (343.15 K) | vapor or sublimation pressure (363.15 K) | vapor or sublimation pressure (353.15 K) | SMILES
909 ± 6 kPa | 1181 ± 7 kPa | 1509 ± 10 kPa | 1898 ± 12 kPa | 2901 ± 18 kPa | – | CC(F)F [1,1-difluoroethane]
377 ± 3 kPa | 495 ± 4 kPa | 638 ± 4 kPa | 810 ± 5 kPa | 1249 ± 8 kPa | 1012 ± 6 kPa | CCCC [butane]
